The text below walks through data of patent US20260242415A1 (priority 2022, published 2026).

Positions of bridges follow the written chain, without caps; N, C: chain ends. Non-standard residues stand in square brackets, D forms with d. Chains are numbered I, II in the order given. AEEA = NCCOCCOCC(=O)O

Assay [1] concerns spike protein of the SARS-CoV-2 virion. Type of assay: binding.
Assay [2] deals with full length SARS-CoV-2 Spike (Severe acute respiratory syndrome coronavirus 2, UniProt P0DTC2). The class given is binding. To be noted: 10 µM.
The test system of assay [3] is VSV pseudotyped with spike protein from SARS-CoV-2.
In assay [4] the test system is VSV pseudotyped with spike protein from SARS-CoV-1.
Assay [5] concerns VSV pseudotyped with spike protein from WIV-16.

Take “I: {CH2CO}-YRRPREQIIIGSLWVFCG[AEEA][AEEA]KG-NH2 / II: {CH2CO}-YRRPREQIIIGSLWVFCG[AEEA][AEEA] (amide I:21-II:C; thioether I:N-I:17, II:N-II:17) [Dimer 2]”: the 50% inhibitory concentration (IC50) in the assay on SARS-CoV-2 pseudoviruses was found to be 50 nM.
Still for that read-out and setting: to “I: {CH2CO}-YRRPREQIIIGSLWVFCG[AEEA][AEEA][AEEA][AEEA][AEEA][AEEA]KG-NH2 / II: {CH2CO}-YRRPREQIIIGSLWVFCG[AEEA][AEEA][AEEA][AEEA][AEEA][AEEA] (amide I:25-II:C; thioether I:N-I:17, II:N-II:17) [Dimer 3]” belongs 90 nM.
For the compound TSQICQELDALGDWI [SARS1spikeD2], the “enrichment in final round (% of total sequences)” value in assay [1] was determined as 7.71%.
Turning to NARILQRWFPELAHL [SARS2D1], the “enrichment in final round (% of total sequences)” value in assay [1] is given as 11.88%. The “ΔTm, melting point change” value in assay [2] came out at 0 °C.
In the assay on SARS-CoV-2 pseudoviruses, “I: {CH2CO}-YRRPREQIIIGSLWVFCG[AEEA][AEEA][AEEA][AEEA][AEEA][AEEA][AEEA][AEEA]KG-NH2 / II: {CH2CO}-YRRPREQIIIGSLWVFCG[AEEA][AEEA][AEEA][AEEA][AEEA][AEEA][AEEA][AEEA] (amide I:27-II:C; thioether I:N-I:17, II:N-II:17) [Dimer 4]” showed an IC50 of 10 nM.
As for CFFWYENYYTAITVT [SARS1spikeL3], the “enrichment in final round (% of total sequences)” value in assay [1] amounted to 2.90%.
As for IILYRTYFQPFRWEF [SARS1spikeL2], the “enrichment in final round (% of total sequences)” value in assay [1] came out at 5.58%.
For VIWHPDRWTSVVLQI [SARS2L2], the “enrichment in final round (% of total sequences)” value in assay [1] is given as 17.02%. Besides, the “ΔTm, melting point change” value in assay [2] was 2 °C.
Regarding “I: {CH2CO}-YRRPREQIIIGSLWVFCG[AEEA][AEEA][AEEA][AEEA]KG-NH2 / II: {CH2CO}-YRRPREQIIIGSLWVFCG[AEEA][AEEA][AEEA][AEEA] (amide I:23-II:C; thioether I:N-I:17, II:N-II:17) [Dimer 1]”, it took 30 nM to reach half-maximal inhibition in the assay with SARS-CoV-2 pseudoviruses (IC50).
Consider IVLHDGLRSATVLWI [SARS2R3L2], for which the “enrichment in final round (% of total sequences)” value in assay [1] was 0.77%. Besides, the “ΔTm, melting point change” value in assay [2] is 1.5 °C.
On to `CC[C@H](C)[C@@H]1NC(=O)[C@H](CCC(N)=O)NC(=O)[C@H](CCC(=O)O)NC(=O)[C@H](CCCNC(=N)N)NC(=O)[C@@H]2CCCN2C(=O)[C@H](CCCNC(=N)N)NC(=O)[C@H](CCCNC(=N)N)NC(=O)[C@H](Cc2ccc(O)cc2)NC(=O)CSC[C@@H](C(=O)NCC(N)=O)NC(=O)[C@H](Cc2ccccc2)NC(=O)[C@H](C(C)C)NC(=O)[C@H](Cc2c[nH]c3ccccc23)NC(=O)[C@H](CC(C)C)NC(=O)[C@H](CO)NC(=O)CNC(=O)[C@H]([C@@H](C)CC)NC(=O)[C@H]([C@@H](C)CC)NC1=O` [Compound S1b3inL1], for which the IC50 in the assay with SARS2-S pseudotyped VSV worked out at 810 nM; in the assay on whole SARS-CoV-2 virus it was 5200 nM; in assay [3], 1700 nM; in assay [4], 2200 nM; in assay [5] it was 7000 nM; with SARS-CoV-2 pseudoviruses, 1500 nM.
Consider LVFHDNVYTVTVVHV [SARS2R3L1], for which, in assay [1], the “enrichment in final round (% of total sequences)” value turned out to be 0.71%. In assay [2], the “ΔTm, melting point change” value stood at 1 °C.
Turning to `CC[C@H](C)[C@@H]1NC(=O)[C@H](Cc2ccc(O)cc2)NC(=O)CSC[C@@H](C(=O)NCC(N)=O)NC(=O)[C@H](C(C)C)NC(=O)[C@H](Cc2ccc(O)cc2)NC(=O)[C@H](CCC(N)=O)NC(=O)[C@H](C(C)C)NC(=O)[C@H](Cc2c[nH]cn2)NC(=O)[C@H]([C@@H](C)O)NC(=O)[C@H](CO)NC(=O)[C@H](Cc2ccc(O)cc2)NC(=O)[C@H](CC(C)C)NC(=O)[C@H](CO)NC(=O)[C@H](CC(=O)O)NC(=O)[C@H](Cc2c[nH]cn2)NC(=O)[C@H](Cc2c[nH]c3ccccc23)NC(=O)[C@H](C(C)C)NC1=O` [SARS2L1], the IC50 was 410 nM in the assay on SARS2-S pseudotyped VSV and > 100000 nM in the assay on whole SARS-CoV-2 virus.
Turning to SVVFSADGRHYYWDS [SARS2L3], in assay [1], the “enrichment in final round (% of total sequences)” value came to 1.25%. For the same compound, the “ΔTm, melting point change” value in assay [2] worked out at 0 °C.
For the compound `CC[C@H](C)[C@@H]1NC(=O)[C@H](C(C)C)NC(=O)[C@H](CC(C)C)NC(=O)[C@H](CCCCN)NC(=O)[C@H](CCCNC(=N)N)NC(=O)[C@@H]2CCCN2C(=O)[C@H](C(C)C)NC(=O)[C@H](CCCNC(=N)N)NC(=O)[C@H](Cc2ccc(O)cc2)NC(=O)CSC[C@@H](C(=O)NCC(N)=O)NC(=O)[C@H](Cc2ccccc2)NC(=O)[C@H](CC(N)=O)NC(=O)[C@H](Cc2c[nH]c3ccccc23)NC(=O)[C@H](C(C)C)NC(=O)[C@H](CO)NC(=O)CNC(=O)[C@H]([C@@H](C)CC)NC1=O` [Compound S1b3inL4], the “enrichment in final round (% of total sequences)” value in assay [1] was 1.50%. Further, in assay [2], the “ΔTm, melting point change” value was 0 °C. In addition, the half-inhibitory concentration (IC50) in the assay on whole SARS-CoV-2 virus came out at 11400 nM.
On to SIENYLKKLGYVLLW [SARS2D4], for which, in assay [1], the “enrichment in final round (% of total sequences)” value is reported as 5.53%. Besides, the “ΔTm, melting point change” value in assay [2] was −0.5 °C.
As to LIWYQSYYQTEVVWF [SARS1spikeL1], the “enrichment in final round (% of total sequences)” value in assay [1] was 8.32%.
